From patent US4268665A, “Derivatives of antibiotic tylosin” (Toyo Jozo Kabushiki Kaisha, priority 1978, dated 1981)
Converted amounts (≈) assume the structure as drawn. Read-outs that look alike come from different tables or passages of the source.

Tests used:
Type in all cases: cell-based
Staph.aureus ATCC6538P = test: MIC on Staph.aureus ATCC6538P; conditions: Staphylococcus aureus
From the text: (§1) In Table I hereinafter is shown the minimum inhibitory concentrations (MIC) on microorganisms of the products of the present invention. As a result, the compound [1] is seen to be effective against macrolide-resistant A group microorganisms.

Staph.aureus MS353 = test: MIC on Staph.aureus MS353; conditions: Staphylococcus aureus
From the text: as §1

Staph.aureus MS353A0 = test: MIC on Staph.aureus MS353A0 (macrolide-resistant A group); conditions: Staphylococcus aureus; Staph.aureus MS353A0, erythromycin, oleandomycin, 16-membered macrolide resistant clinical isolate
From the text: as §1
(§2) *Erythromycin, oleandomycin, 16membered macrolide resistant strains of
(§3) clinical isolates (macrolideresistant Agroup strains)

Staph.aureus 0116 = test: MIC on Staph.aureus 0116 (macrolide-resistant A group); conditions: Staphylococcus aureus
From the text: as §1, §2, §3

Staph.aureus 0119 = test: MIC on Staph.aureus 0119 (macrolide-resistant A group); conditions: Staphylococcus aureus
From the text: as §1, §2, §3

Staph.aureus 0127 = test: MIC on Staph.aureus 0127 (macrolide-resistant A group); conditions: Staphylococcus aureus; Staph.aureus 0127, erythromycin, oleandomycin, 16-membered macrolide resistant clinical isolate
From the text: as §1, §2, §3

Strept.pyogenes N.Y.5 = test: MIC on Strept.pyogenes N.Y.5; conditions: Streptococcus pyogenes
From the text: as §1

Strept.pyogenes 1022 = test: MIC on Strept.pyogenes 1022 (macrolide-resistant A group); conditions: Streptococcus pyogenes; Strept.pyogenes 1022, erythromycin, oleandomycin, 16-membered macrolide resistant clinical isolate
From the text: as §1, §2, §3

[1] = Staph.aureus 0119, erythromycin, oleandomycin, 16-membered macrolide resistant clinical isolate, read-out: MIC
[2] = Staph.aureus 0116, erythromycin, oleandomycin, 16-membered macrolide resistant clinical isolate, read-out: MIC

Row | Structure (SMILES) | MIC (Staph.aureus ATCC6538P) [µg/mL] | MIC (Staph.aureus MS353) [µg/mL] | MIC (Staph.aureus MS353A0) [µg/mL] | MIC (Staph.aureus 0116; 0116) [µg/mL] | MIC (Staph.aureus 0119; [1]) [µg/mL] | MIC (Staph.aureus 0127) [µg/mL] | MIC (Strept.pyogenes N.Y.5) [µg/mL] | MIC (Strept.pyogenes 1022) [µg/mL] | MIC (Staph.aureus 0116; [2]) [µg/mL] | MIC (Staph.aureus 0119; 0119) [µg/mL]
1 | CCC1OC(=O)CC(O)C(C)C(OC2OC(C)C(OC3CC(C)(OC(C)=O)C(OC(C)=O)C(C)O3)C(N(C)C)C2O)C(CC=O)CC(C)C(=O)C=CC(C)=CC1COC1OC(C)C(O)C(OC)C1OC (stereo not drawn) [3"-Ac, 4"-Ac, 3", 4"-diacetyltylosin] | 0.8 (≈ 0.8 µM) | 1.6 (≈ 1.6 µM) | 12.5 (≈ 12.5 µM) | 12.5 (≈ 12.5 µM) | 50 (≈ 50 µM) | 100 (≈ 100 µM) | 0.2 (≈ 0.2 µM) | 6.3 (≈ 6.3 µM) | – | –
2 | CCCC(=O)OC1C(C)OC(OC2C(C)OC(OC3C(CC=O)CC(C)C(=O)C=CC(C)=CC(COC4OC(C)C(O)C(OC)C4OC)C(CC)OC(=O)CC(O)C3C)C(O)C2N(C)C)CC1(C)OC(C)=O (stereo not drawn) [3"-Ac, 4"-Bu, 3"-acetyl-4"-butyryltylosin] | 1.6 (≈ 1.56 µM) | 3.1 (≈ 3.01 µM) | 12.5 (≈ 12.2 µM) | – | – | 25 (≈ 24.3 µM) | 0.2 (≈ 0.195 µM) | 1.6 (≈ 1.56 µM) | 6.3 (≈ 6.13 µM) | 12.5 (≈ 12.2 µM)
3 | CCCCCC(=O)OC1C(C)OC(OC2C(C)OC(OC3C(CC=O)CC(C)C(=O)C=CC(C)=CC(COC4OC(C)C(O)C(OC)C4OC)C(CC)OC(=O)CC(O)C3C)C(O)C2N(C)C)CC1(C)OC(C)=O (stereo not drawn) [3"-Ac, 4"-Hex, 3"-acetyl-4"-hexanoyltylosin] | 1.6 (≈ 1.51 µM) | 3.1 (≈ 2.93 µM) | 12.5 (≈ 11.8 µM) | – | – | 25 (≈ 23.7 µM) | 0.4 (≈ 0.379 µM) | 1.6 (≈ 1.51 µM) | 6.3 (≈ 5.96 µM) | 12.5 (≈ 11.8 µM)
4 | CCC1OC(=O)CC(O)C(C)C(OC2OC(C)C(OC3CC(C)(OC(C)=O)C(OC(=O)CC(C)C)C(C)O3)C(N(C)C)C2O)C(CC=O)CC(C)C(=O)C=CC(C)=CC1COC1OC(C)C(O)C(OC)C1OC (stereo not drawn) [3"-Ac, 4"-Iva, 3"-acetyl-4"-isovaleryltylosin] | 1.6 (≈ 1.54 µM) | 3.1 (≈ 2.97 µM) | 6.3 (≈ 6.04 µM) | – | 6.3 (≈ 6.04 µM) | 12.5 (≈ 12 µM) | 0.2 (≈ 0.192 µM) | 1.6 (≈ 1.54 µM) | 6.3 (≈ 6.04 µM) | –
5 | CCC(=O)OC1C(C)OC(OC2C(C)OC(OC3C(CC=O)CC(C)C(=O)C=CC(C)=CC(COC4OC(C)C(O)C(OC)C4OC)C(CC)OC(=O)CC(O)C3C)C(O)C2N(C)C)CC1(C)OC(C)=O (stereo not drawn) [3"-Ac, 4"-Pro, 3"-acetyl-4"-propionyltylosin] | 1.6 (≈ 1.58 µM) | 3.1 (≈ 3.06 µM) | 25 (≈ 24.6 µM) | – | 12.5 (≈ 12.3 µM) | 25 (≈ 24.6 µM) | 0.2 (≈ 0.197 µM) | 1.6 (≈ 1.58 µM) | 6.3 (≈ 6.21 µM) | –
6 | CCCC(=O)OC1C(C)OC(OC2C(C)OC(OC3C(CC=O)CC(C)C(=O)C=CC(C)=CC(COC4OC(C)C(O)C(OC)C4OC)C(CC)OC(=O)CC(O)C3C)C(O)C2N(C)C)CC1(C)OC(=O)CCC (stereo not drawn) [3"-Bu, 4"-Bu, 3", 4"-dibutyryltylosin] | 1.6 (≈ 1.51 µM) | 6.1 (≈ 5.77 µM) | 12.5 (≈ 11.8 µM) | – | – | 25 (≈ 23.7 µM) | 0.2 (≈ 0.189 µM) | 1.6 (≈ 1.51 µM) | 6.3 (≈ 5.96 µM) | 12.5 (≈ 11.8 µM)
7 | CCCC(=O)OC1C(C)OC(OC2C(C)OC(OC3C(CC=O)CC(C)C(=O)C=CC(C)=CC(COC4OC(C)C(O)C(OC)C4OC)C(CC)OC(=O)CC(O)C3C)C(O)C2N(C)C)CC1(C)O (stereo not drawn) [3"-H, 4"-Bu, reference compound] | 0.8 (≈ 0.811 µM) | 3.1 (≈ 3.14 µM) | 50 (≈ 50.7 µM) | – | 50 (≈ 50.7 µM) | 100 (≈ 101 µM) | 0.2 (≈ 0.203 µM) | 12.5 (≈ 12.7 µM) | 25 (≈ 25.3 µM) | –
8 | CC[C@H]1OC(=O)C[C@@H](O)[C@H](C)[C@@H](O[C@@H]2O[C@H](C)[C@@H](O[C@H]3C[C@@](C)(O)[C@@H](O)[C@H](C)O3)[C@H](N(C)C)[C@H]2O)[C@@H](CC=O)C[C@@H](C)C(=O)/C=C/C(C)=C/[C@@H]1CO[C@@H]1O[C@H](C)[C@@H](O)[C@@H](OC)[C@H]1OC [3"-H, 4"-H, tylosin] | 0.8 (≈ 0.873 µM) | 1.6 (≈ 1.75 µM) | > 100 | – | > 100 | > 100 | 0.2 (≈ 0.218 µM) | > 100 | > 100 | –
9 | CCC1OC(=O)CC(O)C(C)C(OC2OC(C)C(OC3CC(C)(OC(=O)CC(C)C)C(OC(C)=O)C(C)O3)C(N(C)C)C2O)C(CC=O)CC(C)C(=O)C=CC(C)=CC1COC1OC(C)C(O)C(OC)C1OC (stereo not drawn) [3"-Iva, 4"-Ac, 4"-acetyl-3"-isovaleryltylosin] | 0.8 (≈ 0.768 µM) | 1.6 (≈ 1.54 µM) | 6.3 (≈ 6.04 µM) | – | 25 (≈ 24 µM) | > 100 | 0.2 (≈ 0.192 µM) | 6.3 (≈ 6.04 µM) | 6.3 (≈ 6.04 µM) | –
10 | CCCC(=O)OC1C(C)OC(OC2C(C)OC(OC3C(CC=O)CC(C)C(=O)C=CC(C)=CC(COC4OC(C)C(O)C(OC)C4OC)C(CC)OC(=O)CC(O)C3C)C(O)C2N(C)C)CC1(C)OC(=O)CC (stereo not drawn) [3"-Pro, 4"-Bu, 4"-butyryl-3"-propionyltylosin] | 1.6 (≈ 1.54 µM) | 3.1 (≈ 2.97 µM) | 12.5 (≈ 12 µM) | – | – | 25 (≈ 24 µM) | 0.2 (≈ 0.192 µM) | 1.6 (≈ 1.54 µM) | 6.3 (≈ 6.04 µM) | 12.5 (≈ 12 µM)
11 | CCC(=O)OC1(C)CC(OC2C(C)OC(OC3C(CC=O)CC(C)C(=O)C=CC(C)=CC(COC4OC(C)C(O)C(OC)C4OC)C(CC)OC(=O)CC(O)C3C)C(O)C2N(C)C)OC(C)C1OC(=O)CC(C)C (stereo not drawn) [3"-Pro, 4"-Iva, 4"-isovaleryl-3"-propionyltylosin] | 1.6 (≈ 1.51 µM) | 3.1 (≈ 2.93 µM) | 6.3 (≈ 5.96 µM) | – | 6.3 (≈ 5.96 µM) | 12.5 (≈ 11.8 µM) | 0.4 (≈ 0.379 µM) | 0.8 (≈ 0.757 µM) | 6.3 (≈ 5.96 µM) | –
12 | CCC(=O)OC1C(C)OC(OC2C(C)OC(OC3C(CC=O)CC(C)C(=O)C=CC(C)=CC(COC4OC(C)C(O)C(OC)C4OC)C(CC)OC(=O)CC(O)C3C)C(O)C2N(C)C)CC1(C)OC(=O)CC (stereo not drawn) [3"-Pro, 4"-Pro, 3", 4"-dipropionyltylosin] | 1.6 (≈ 1.56 µM) | 3.1 (≈ 3.01 µM) | 25 (≈ 24.3 µM) | – | 12.5 (≈ 12.2 µM) | 25 (≈ 24.3 µM) | 0.2 (≈ 0.195 µM) | 1.6 (≈ 1.56 µM) | 6.3 (≈ 6.13 µM) | –
